Values after ≈ are worked out from the molar mass of the structure shown. Active and inactive are the calls of the source. The rule behind the calls is not given here.
Experiments:
[1] = biological target: T1, Transient receptor potential cation channel subfamily V member 1 (Homo sapiens, UniProt Q8NER1); assay: Antagonist activity against capsaicin-activated human VR1 by FLIPR assay; format: functional
[2] = biological target: Transient receptor potential cation channel subfamily V member 1 (Rattus norvegicus, UniProt O35433); assay: Antagonist activity against low pH(5.0-5.5)-activated rat VR1; format: functional
[3] = Aqueous solubility at pH 7.4 by HTsol assay; format: physicochemical; conditions: buffer
[4] = biological target: T1, Transient receptor potential cation channel subfamily V member 1; assay: Agonist activity at human VR1 expressed in HEK293 cells upto 4 uM; format: functional, cell-based
[5] = Tmax in rat at 3 mg/kg, iv; format: ADME, organism-based; set-up: dose 3 mg/kg, route intravenous; conditions: in vivo
[6] = Volume of distribution in rat at 3 mg/kg, iv; format: ADME, organism-based; set-up: dose 3 mg/kg, route intravenous; conditions: in vivo, read-out: Vdss
[7] = Half life in rat at 3 mg/kg, iv; format: ADME, organism-based; set-up: dose 3 mg/kg, route intravenous; conditions: in vivo
[8] = Bioavailability in rat at 3 mg/kg, iv; format: ADME, organism-based; conditions: in vivo
[9] = Clearance in rat at 3 mg/kg, iv; format: ADME, organism-based; set-up: dose 3 mg/kg, route intravenous; conditions: in vivo
[10] = Bioavailability in rat; format: ADME, organism-based; conditions: in vivo

T1 sequence (Q8NER1 whole entry): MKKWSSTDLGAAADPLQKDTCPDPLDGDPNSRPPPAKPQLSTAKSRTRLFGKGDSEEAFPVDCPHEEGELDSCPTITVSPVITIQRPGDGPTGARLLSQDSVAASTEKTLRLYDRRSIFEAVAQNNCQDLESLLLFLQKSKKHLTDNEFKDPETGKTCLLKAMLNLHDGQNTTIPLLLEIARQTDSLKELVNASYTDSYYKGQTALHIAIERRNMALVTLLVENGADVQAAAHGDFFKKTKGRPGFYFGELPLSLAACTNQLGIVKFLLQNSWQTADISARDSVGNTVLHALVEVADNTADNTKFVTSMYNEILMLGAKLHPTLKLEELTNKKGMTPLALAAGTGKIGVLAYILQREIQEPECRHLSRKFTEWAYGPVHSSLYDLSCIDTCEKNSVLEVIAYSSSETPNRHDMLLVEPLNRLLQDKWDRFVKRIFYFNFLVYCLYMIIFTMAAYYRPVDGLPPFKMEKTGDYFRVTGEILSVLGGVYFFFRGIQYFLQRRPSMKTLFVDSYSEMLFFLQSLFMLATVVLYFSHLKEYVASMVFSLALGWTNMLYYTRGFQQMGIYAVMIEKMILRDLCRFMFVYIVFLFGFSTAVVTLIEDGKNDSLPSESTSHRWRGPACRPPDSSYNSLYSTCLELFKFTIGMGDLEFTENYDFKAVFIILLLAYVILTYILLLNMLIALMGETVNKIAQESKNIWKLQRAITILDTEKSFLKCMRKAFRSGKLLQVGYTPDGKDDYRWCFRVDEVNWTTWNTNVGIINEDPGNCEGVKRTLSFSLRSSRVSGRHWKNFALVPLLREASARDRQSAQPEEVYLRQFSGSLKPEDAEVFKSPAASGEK
Transient receptor potential cation channel subfamily V member 1 (Rattus norvegicus, UniProt O35433), sequence (O35433 whole entry): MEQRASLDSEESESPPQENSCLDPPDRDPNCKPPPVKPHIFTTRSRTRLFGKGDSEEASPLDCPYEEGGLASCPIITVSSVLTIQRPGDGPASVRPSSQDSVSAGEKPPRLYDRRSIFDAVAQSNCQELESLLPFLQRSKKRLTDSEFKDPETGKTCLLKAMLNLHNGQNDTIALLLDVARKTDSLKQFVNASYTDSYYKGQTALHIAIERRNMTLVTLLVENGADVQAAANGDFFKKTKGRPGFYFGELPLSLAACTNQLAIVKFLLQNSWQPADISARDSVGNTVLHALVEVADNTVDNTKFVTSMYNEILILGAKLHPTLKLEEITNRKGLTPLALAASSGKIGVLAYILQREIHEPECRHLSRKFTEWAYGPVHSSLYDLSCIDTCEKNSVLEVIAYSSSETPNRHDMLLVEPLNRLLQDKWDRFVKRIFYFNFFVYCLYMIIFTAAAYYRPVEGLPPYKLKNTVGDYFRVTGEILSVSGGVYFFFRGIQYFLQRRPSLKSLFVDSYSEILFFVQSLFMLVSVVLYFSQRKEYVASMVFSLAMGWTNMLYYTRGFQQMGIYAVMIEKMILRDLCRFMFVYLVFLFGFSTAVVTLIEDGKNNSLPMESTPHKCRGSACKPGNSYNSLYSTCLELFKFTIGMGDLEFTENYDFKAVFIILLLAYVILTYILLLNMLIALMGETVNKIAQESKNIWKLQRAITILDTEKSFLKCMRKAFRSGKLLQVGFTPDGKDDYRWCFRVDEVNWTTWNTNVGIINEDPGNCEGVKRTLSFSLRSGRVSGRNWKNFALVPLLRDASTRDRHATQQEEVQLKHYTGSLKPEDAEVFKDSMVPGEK

SMILES	IC50 [1]	IC50 [2]	further results
Cc1cccnc1-c1ccc(C(=O)Nc2ccc(C(F)(F)F)cc2)cn1	624 nM	583 nM	
O=C(Nc1ccc(C(F)(F)F)cc1)c1ccc(-c2ncccc2C(F)(F)F)cc1Cl	> 4000 nM	2400 nM	
Cc1cccnc1-c1ccc(C(=O)Nc2ccc(C(C)C)cc2)cc1	73 nM	43 nM	
CC(C)(C)c1ccc(NC(=O)c2ccc(-c3ncccc3-c3nnco3)cc2)cc1	91 nM	59 nM	
CCCCS(=O)(=O)Nc1cccnc1-c1ccc(C(=O)Nc2ccc(C(C)(C)C)cc2)cc1	162 nM	141 nM	
O=C(Nc1ccc(C(F)(F)F)cc1)c1ccc(-c2ncccc2C(F)(F)F)cc1F	131 nM	348 nM	
Cc1nc(-c2ncccc2C(F)(F)F)ccc1C(=O)Nc1ccc(C(F)(F)F)cc1	259 nM	263 nM	
O=C(Nc1ccc(C(F)(F)F)cc1)c1ccc(-c2ncccc2C(F)(F)F)cc1		26 nM	Activity [4]: inactive
CC(C)(C)c1ccc(NC(=O)c2ccc(-c3ncccc3-c3nnn[nH]3)cc2)cc1	> 4000 nM	> 4000 nM	
CC(C)(C)c1ccc(NC(=O)c2ccc(-c3ncccc3C(=O)O)cc2)cc1	> 4000 nM	560 nM	solubility [3]: 104 µg/mL (≈ 278 µM)
CC(C)(C)c1ccc(NC(=O)c2ccc(-c3ncccc3CO)cc2)cc1	168 nM	88 nM	
CCCNCc1cccnc1-c1ccc(C(=O)Nc2ccc(C(C)(C)C)cc2)cc1	4300 nM	639 nM	
Cc1nnc(-c2cccnc2-c2ccc(C(=O)Nc3ccc(C(C)(C)C)cc3)cc2)o1	387 nM	34 nM	
Cc1cccnc1-c1ccc(C(=O)Nc2ccc(C(C)(C)C)cc2)cc1		9 nM	
N#Cc1ccc(NC(=O)c2ccc(-c3ncccc3C(F)(F)F)cc2)cc1	417 nM	1300 nM	
Cc1ccc(NC(=O)c2ccc(-c3ncccc3C)cc2)cc1	2580 nM	> 4000 nM	
COc1ccc(NC(=O)c2ccc(-c3ncccc3C)cc2)cc1	> 4000 nM	> 4000 nM	
CC(C)(C)c1ccc(NC(=O)c2ccc(-c3ncccc3C(F)(F)F)cc2)cc1	6 nM	4 nM	bioavailability [10]: 2%
O=C(Nc1ccc(C(F)(F)F)cc1)c1ccc(-c2ncccc2C(F)(F)F)cc1[N+](=O)[O-]	392 nM	222 nM	
CC(C)(C)c1ccc(NC(=O)c2ccc(-c3ncccc3N(S(C)(=O)=O)S(C)(=O)=O)cc2)cc1	0.8 nM	0.4 nM	solubility [3]: 1 µg/mL (≈ 1.99 µM)

SMILES	IC50 [1]	IC50 [2]	further results
CCCOc1cccnc1-c1ccc(C(=O)Nc2ccc(C(C)(C)C)cc2)cc1	62 nM	20 nM	
O=C(Nc1ccc(C(F)(F)F)cc1)c1ccc(-c2ncccc2C(F)(F)F)nc1O	> 4000 nM	764 nM	
O=C(Nc1ccccc1)c1ccc(-c2ncccc2C(F)(F)F)cc1	> 4000 nM		
O=C(Nc1ccc(C(F)(F)F)cc1)c1ncc(-c2ncccc2C(F)(F)F)cn1	42 nM	60 nM	
CS(=O)(=O)N(c1cc(-c2ncccc2C(F)(F)F)ccc1C(=O)Nc1ccc(C(F)(F)F)cc1)S(C)(=O)=O	> 4000 nM	> 4000 nM	
CC(C)(C)c1ccc(NC(=O)c2ccc(-c3ncccc3Cl)cc2)cc1	8 nM	2 nM	
CC(C)(C)c1ccc(NC(=O)c2ccc(-c3ccccn3)cc2)cc1	11 nM	8 nM	
Cc1cccnc1-c1ccc(C(=O)Nc2ccc(OC(F)(F)F)cc2)cc1	974 nM	896 nM	
CCN(CC)Cc1cccnc1-c1ccc(C(=O)Nc2ccc(C(C)(C)C)cc2)cc1	1410 nM	334 nM	
Cc1cccnc1-c1ccc(C(=O)Nc2ccc(C(F)(F)F)cc2)cc1	65 nM	81 nM	
CC(C)(C)c1ccc(NC(=O)c2ccc(-c3ncccc3C(=N)N)cc2)cc1	> 4000 nM	> 4000 nM	
CC(=O)Nc1cccnc1-c1ccc(C(=O)Nc2ccc(C(C)(C)C)cc2)cc1	1110 nM	290 nM	
CC(C)(C)c1ccc(NC(=O)c2ccc(-c3ncccc3[N+](=O)[O-])cc2)cc1	5 nM	5 nM	
Cc1cc(C(=O)Nc2ccc(C(F)(F)F)cc2)ccc1-c1ncccc1C	233 nM	190 nM	
CC(C)(C)c1ccc(NC(=O)c2ccc(-c3ncccc3NS(=O)(=O)c3ccccc3)cc2)cc1	91 nM	166 nM	solubility [3]: 1 µg/mL (≈ 2.06 µM)
Cc1cccnc1-c1ccc(C(=O)Nc2ccc(Br)cc2)cc1	189 nM	366 nM	
Cc1cc(-c2ncccc2C)ccc1C(=O)Nc1ccc(C(F)(F)F)cc1	> 4000 nM	> 4000 nM	
CCS(=O)(=O)Nc1cccnc1-c1ccc(C(=O)Nc2ccc(C(C)(C)C)cc2)cc1	49 nM	4 nM	solubility [3]: 1 µg/mL (≈ 2.29 µM)
Nc1cc(-c2ncccc2C(F)(F)F)ccc1C(=O)Nc1ccc(C(F)(F)F)cc1	93 nM	103 nM	
CCCNc1cccnc1-c1ccc(C(=O)Nc2ccc(C(C)(C)C)cc2)cc1	158 nM	37 nM	

The next lines start with results.

IC50 [1]	IC50 [2]	SMILES	further results
746 nM	234 nM	CN(C)Cc1cccnc1-c1ccc(C(=O)Nc2ccc(C(C)(C)C)cc2)cc1	solubility [3]: 50 µg/mL (≈ 129 µM)
377 nM	159 nM	CC(C)(C)c1ccc(NC(=O)c2ccc(-c3ncccc3NS(=O)(=O)Cc3ccccc3)cc2)cc1	
> 4000 nM	1040 nM	COc1cc(-c2ncccc2C(F)(F)F)ccc1C(=O)Nc1ccc(C(F)(F)F)cc1	
43 nM	36 nM	O=C(Nc1ccc(C(F)(F)F)cc1)c1ccc(-c2ncccc2C(F)(F)F)cc1O	
	1.4 nM	FC(F)(F)c1ccc(Nc2ncnc3cc(-c4ncccc4C(F)(F)F)ccc23)cc1 [NGD-8243]	Tmax [5]: 0.7 h; Vd [6]: 12.5 L/kg; half-life [7]: 8.1 h; Activity [4]: inactive; bioavailability [8]: 99%; clearance [9]: 23 mL/min/kg
1020 nM	722 nM	CS(=O)(=O)Nc1cc(-c2ncccc2C(F)(F)F)ccc1C(=O)Nc1ccc(C(F)(F)F)cc1	
123 nM	325 nM	CC(C)(C)c1ccc(NC(=O)c2ccc(-c3ncccc3N)cc2)cc1	
152 nM	35 nM	CC(C)(C)c1ccc(NC(=O)c2ccc(-c3ncccc3NS(C)(=O)=O)cc2)cc1	
24 nM	65 nM	O=C(Nc1ccc(C(F)(F)F)cn1)c1ccc(-c2ncccc2C(F)(F)F)cc1	
257 nM	192 nM	Cc1cc(C(=O)Nc2ccc(C(F)(F)F)cc2)ccc1-c1ncccc1C(F)(F)F	
3670 nM	694 nM	CC(C)(C)c1ccc(NC(=O)c2ccc(-c3ncccc3-c3ncc[nH]3)cc2)cc1	
> 4000 nM	> 4000 nM	Cc1cccnc1-c1ccc(C(=O)Nc2ccccn2)cc1	
17 nM	11 nM	C[C@@H]1CN(c2ncccc2C(F)(F)F)CCN1C(=O)Nc1ccc(C(F)(F)F)cc1	Tmax [5]: 0.5 h; Vd [6]: 12 L/kg; half-life [7]: 7.2 h; Activity [4]: inactive; bioavailability [8]: 27%; clearance [9]: 39 mL/min/kg
39 nM	9 nM	CN(c1cccnc1-c1ccc(C(=O)Nc2ccc(C(C)(C)C)cc2)cc1)S(C)(=O)=O	solubility [3]: 1 µg/mL (≈ 2.29 µM)
1500 nM	2020 nM	Cc1cccnc1-c1ccc(C(=O)Nc2ccc(Cl)cc2)cc1	
190 nM	44 nM	CC(C)(C)c1ccc(NC(=O)c2ccc(-c3ncccc3NC3CCCC3)cc2)cc1	
1530 nM	196 nM	CC(C)(C)c1ccc(NC(=O)c2ccc(-c3ncccc3CN3CCCC3)cc2)cc1	
58 nM		O=C(Nc1ccc(C(F)(F)F)cc1)c1ccc(-c2ncccc2Cl)cc1	
60 nM	56 nM	O=C(Nc1ccc(C(F)(F)F)cc1)c1ccc(-c2ncccc2C(F)(F)F)nc1	
> 4000 nM	> 4000 nM	Cc1cccnc1-c1ccc(C(=O)Nc2ccc(F)cc2)cc1	
3 nM	1 nM	CC(C)(C)c1ccc(NC(=O)c2ccc(-c3ncccc3F)cc2)cc1	
1780 nM	1580 nM	Cc1cccnc1-c1ccc(C(=O)Nc2ccc(C(F)(F)F)cc2)nc1	
30 nM	13 nM	CC(C)(C)c1ccc(NC(=O)c2ccc(-c3ncccc3C#N)cc2)cc1	
49 nM	5 nM	CC(C)(C)c1ccc(NC(=O)c2ccc(-c3ncccc3NO)cc2)cc1	

Source: ChEMBL document CHEMBL1149508, “From arylureas to biarylamides to aminoquinazolines: discovery of a novel, potent TRPV1 antagonist” (Bioorg Med Chem Lett, 2006)
